Measured values reported in patent US9242970B2 (ACTELION PHARMACEUTICALS LTD., priority 2010, dated 2016).
Like-named read-outs stand apart in the source and are kept apart here.

Assays:
human orexin-1 receptor = human orexin-1 receptor (Homo sapiens (Human), UniProt O43613); experiment: In vitro assay: intracellular calcium measurements (FLIPR), antagonistic activity; type: cell-based; details: CHO cells, 3 nM orexin-A, marked values are geometric means of n = 2-6, read-out: IC50 OX1
Method: (§1) In Vitro Assay: Intracellular Calcium Measurements:
(§2) Chinese hamster ovary (CHO) cells expressing the human orexin-1 receptor and the human orexin-2 receptor, respectively, are grown in culture medium (Ham F-12 with L-Glutamine) containing 300 µg/ml G418, 100 U/ml penicillin, 100 µg/ml streptomycin and 10% heat inactivated fetal calf serum (FCS). The cells are seeded at 20,000 cells/well into 384-well black clear bottom sterile plates (Greiner). The seeded plates are incubated overnight at 37° C. in 5% CO2.
(§3) Fluorescence is measured for each well at 1 second intervals, and the height of each fluorescence peak is compared to the height of the fluorescence peak induced by 3 nM orexin-A with vehicle in place of antagonist. […] Optimized conditions were achieved by adjustment of pipetting speed and cell splitting regime. The calculated IC50 values may fluctuate depending on the daily cellular assay performance. Fluctuations of this kind are known to those skilled in the art.

human orexin-2 receptor = human orexin-2 receptor (Homo sapiens (Human), UniProt O43614); experiment: as above; type: cell-based; details: CHO cells, 3 nM orexin-A, compound incubation 120 min; marked values are geometric means of n = 2-6; read-out: IC50 OX2
Method: as §1, §2, §3

[1] = compound incubation time of 10 min

Chain of human orexin-2 receptor (O43614 whole entry): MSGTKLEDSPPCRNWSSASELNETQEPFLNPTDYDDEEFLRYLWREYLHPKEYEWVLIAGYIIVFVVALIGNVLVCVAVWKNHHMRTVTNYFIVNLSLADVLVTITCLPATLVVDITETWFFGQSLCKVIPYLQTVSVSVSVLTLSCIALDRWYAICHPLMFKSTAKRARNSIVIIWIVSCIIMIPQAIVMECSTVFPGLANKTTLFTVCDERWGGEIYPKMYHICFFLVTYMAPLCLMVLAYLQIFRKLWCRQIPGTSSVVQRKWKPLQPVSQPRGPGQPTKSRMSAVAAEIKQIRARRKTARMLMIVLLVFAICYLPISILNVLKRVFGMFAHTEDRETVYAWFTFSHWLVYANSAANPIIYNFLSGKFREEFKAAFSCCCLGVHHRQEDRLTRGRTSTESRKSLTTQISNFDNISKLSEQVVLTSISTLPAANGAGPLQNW
Chain of human orexin-1 receptor (O43613 whole entry): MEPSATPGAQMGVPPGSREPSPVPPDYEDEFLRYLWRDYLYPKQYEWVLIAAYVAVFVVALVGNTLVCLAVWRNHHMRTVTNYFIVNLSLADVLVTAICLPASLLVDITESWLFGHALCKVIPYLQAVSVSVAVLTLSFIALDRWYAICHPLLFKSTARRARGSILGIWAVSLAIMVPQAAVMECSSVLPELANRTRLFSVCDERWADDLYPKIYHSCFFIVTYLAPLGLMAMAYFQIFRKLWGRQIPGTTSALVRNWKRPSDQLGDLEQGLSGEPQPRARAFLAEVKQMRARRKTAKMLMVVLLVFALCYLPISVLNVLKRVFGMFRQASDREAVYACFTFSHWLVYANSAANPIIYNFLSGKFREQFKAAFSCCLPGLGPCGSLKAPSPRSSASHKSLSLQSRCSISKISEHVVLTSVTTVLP

COc1cccc(F)c1[C@@H]1C[C@H](O)C(=O)N1Cc1ccc(OC(F)(F)F)cc1 (racemic) [Example 265, rac-(3S*,5S*)-5-(2-fluoro-6-methoxyphenyl)-3-hydroxy-1-(4-(trifluoromethoxy)benzyl)pyrrolidin-2-one]
IC50 (human orexin-1 receptor; [1]): 730 nM

COc1cccc(F)c1[C@@H]1C[C@@H](O)C(=O)N1Cc1ccc(OC(F)(F)F)cc1 (racemic) [Example 293, rac-(3R*,5S*)-5-(2-fluoro-6-methoxyphenyl)-3-hydroxy-1-(4-(trifluoromethoxy)benzyl)pyrrolidin-2-one]
IC50 (human orexin-1 receptor; compound incubation 120 min): 2750 nM

COc1cccc(Cl)c1[C@@H]1C[C@@H](O)C(=O)N1Cc1ccc(OC(F)(F)F)cc1 (racemic) [Example 294, rac-(3R*,5S*)-5-(2-chloro-6-methoxyphenyl)-3-hydroxy-1-(4-(trifluoromethoxy)benzyl)pyrrolidin-2-one]
IC50 (human orexin-1 receptor; compound incubation 120 min): 2440 nM

COc1cc(F)ccc1[C@@H]1C[C@@H](O)C(=O)N1Cc1ccc(OC(F)(F)F)cc1 (racemic) [Example 296, rac-(3R*,5S*)-5-(4-fluoro-2-methoxyphenyl)-3-hydroxy-1-(4-(trifluoromethoxy)benzyl)pyrrolidin-2-one]
IC50 (human orexin-2 receptor): 2210 nM

CCOc1ccccc1[C@@H]1C[C@H](F)C(=O)N1Cc1ccc(OC(F)(F)F)cc1 (racemic) [Example 300, rac-(3S*,5S*)-5-(2-ethoxyphenyl)-3-fluoro-1-(4-(trifluoromethoxy)benzyl)pyrrolidin-2-one]
IC50 (human orexin-2 receptor): 98 nM

COc1cc(F)ccc1[C@@H]1C[C@H](F)C(=O)N1Cc1ccc(OC(F)(F)F)cc1 (racemic) [Example 303, rac-(3S*,5S*)-3-fluoro-5-(4-fluoro-2-methoxyphenyl)-1-(4-(trifluoromethoxy)benzyl)pyrrolidin-2-one]
IC50 (human orexin-2 receptor): 143 nM

O=C1[C@@H](Cl)C[C@@H](c2cccc3c2OCCO3)N1Cc1ccc(OC(F)(F)F)cc1 (racemic) [Example 307, rac-(3S*,5S*)-3-chloro-5-(2,3-dihydrobenzo[b][1,4]dioxin-5-yl)-1-(4-(trifluoromethoxy)benzyl)pyrrolidin-2-one]
IC50 (human orexin-1 receptor; compound incubation 120 min): 563 nM

CCOc1c(F)cccc1[C@@H]1C[C@@H](O)C(=O)N1Cc1ccc(OC(F)(F)F)cc1 (racemic) [Example 310, rac-(3R*,5S*)-5-(2-ethoxy-3-fluorophenyl)-3-hydroxy-1-(4-(trifluoromethoxy)benzyl)pyrrolidin-2-one]
IC50 (human orexin-2 receptor): 1680 nM

COc1ccc2ccccc2c1[C@@H]1C[C@H](F)C(=O)N1Cc1ccc(OC(F)(F)F)cc1 (racemic) [Example 315, rac-(3S*,5S*)-3-fluoro-5-(2-methoxynaphthalen-1-yl)-1-(4-(trifluoromethoxy)benzyl)pyrrolidin-2-one]
IC50 (human orexin-1 receptor; compound incubation 120 min): 1200 nM

COc1c(F)ccc(F)c1[C@@H]1C[C@@H](Cl)C(=O)N1Cc1ccc(OC(F)(F)F)cc1 (racemic) [Example 317, rac-(3R*,5S*)-3-chloro-5-(3,6-difluoro-2-methoxyphenyl)-1-(4-(trifluoromethoxy)benzyl)pyrrolidin-2-one]
IC50 (human orexin-1 receptor; compound incubation 120 min): 1070 nM

COc1c(F)ccc(F)c1[C@@H]1C[C@H](Cl)C(=O)N1Cc1ccc(OC(F)(F)F)cc1 (racemic) [Example 320, rac-(3S*,5S*)-3-chloro-5-(3,6-difluoro-2-methoxyphenyl)-1-(4-(trifluoromethoxy)benzyl)pyrrolidin-2-one]
IC50 (human orexin-1 receptor; compound incubation 120 min): 1050 nM

O=C1[C@H](Cl)C[C@@H](c2cccc3c2OCCO3)N1Cc1ccc(OC(F)(F)F)cc1 (racemic) [Example 322, rac-(3R*,5S*)-3-chloro-5-(2,3-dihydrobenzo[b][1,4]dioxin-5-yl)-1-(4-(trifluoromethoxy)benzyl)pyrrolidin-2-one]
IC50 (human orexin-1 receptor; compound incubation 120 min): 1080 nM

COc1cccc(C)c1[C@@H]1C[C@H](F)C(=O)N1Cc1ccc(OC(F)(F)F)cc1 (racemic) [Example 325, rac-(3S*,5S*)-3-fluoro-5-(2-methoxy-6-methylphenyl)-1-(4-(trifluoromethoxy)benzyl)pyrrolidin-2-one]
IC50 (human orexin-1 receptor; compound incubation 120 min): 1380 nM

CCOc1c(F)cccc1[C@@H]1C[C@@H](Cl)C(=O)N1Cc1ccc(OC(F)(F)F)cc1 (racemic) [Example 327, rac-(3R*,5S*)-3-chloro-5-(2-ethoxy-3-fluorophenyl)-1-(4-(trifluoromethoxy)benzyl)pyrrolidin-2-one]
IC50 (human orexin-1 receptor; compound incubation 120 min): 1060 nM

COc1ccc(F)c(OC)c1[C@@H]1C[C@@H](Cl)C(=O)N1Cc1ccc(OC(F)(F)F)cc1 (racemic) [Example 328, rac-(3R*,5S*)-3-chloro-5-(3-fluoro-2,6-dimethoxyphenyl)-1-(4-(trifluoromethoxy)benzyl)pyrrolidin-2-one]
IC50 (human orexin-1 receptor; compound incubation 120 min): 739 nM

CCOc1c(F)cccc1[C@@H]1C[C@H](Cl)C(=O)N1Cc1ccc(OC(F)(F)F)cc1 (racemic) [Example 329, rac-(3S*,5S*)-3-chloro-5-(2-ethoxy-3-fluorophenyl)-1-(4-(trifluoromethoxy)benzyl)pyrrolidin-2-one]
IC50 (human orexin-1 receptor; compound incubation 120 min): 885 nM

COc1ccc(F)c(OC)c1[C@@H]1C[C@H](Cl)C(=O)N1Cc1ccc(OC(F)(F)F)cc1 (racemic) [Example 330, rac-(3S*,5S*)-3-chloro-5-(3-fluoro-2,6-dimethoxyphenyl)-1-(4-(trifluoromethoxy)benzyl)pyrrolidin-2-one]
IC50 (human orexin-1 receptor; compound incubation 120 min): 227 nM

CCOc1ccc(F)c(F)c1[C@@H]1C[C@H](Cl)C(=O)N1Cc1ccc(OC(F)(F)F)cc1 (racemic) [Example 339, rac-(3S*,5S*)-3-chloro-5-(6-ethoxy-2,3-difluorophenyl)-1-(4-(trifluoromethoxy)benzyl)pyrrolidin-2-one]
IC50 (human orexin-1 receptor; compound incubation 120 min): 816 nM

CCOc1cc(F)ccc1[C@@H]1C[C@H](F)C(=O)N1Cc1ccc(OC(F)(F)F)cc1 (racemic) [Example 344, rac-(3S*,5S*)-5-(2-ethoxy-4-fluorophenyl)-3-fluoro-1-(4-(trifluoromethoxy)benzyl)pyrrolidin-2-one]
IC50 (human orexin-1 receptor; compound incubation 120 min): 1800 nM

CCOc1ccc(F)c(F)c1[C@@H]1C[C@@H](Cl)C(=O)N1Cc1ccc(OC(F)(F)F)cc1 (racemic) [Example 346, rac-(3R*,5S*)-3-chloro-5-(6-ethoxy-2,3-difluorophenyl)-1-(4-(trifluoromethoxy)benzyl)pyrrolidin-2-one]
IC50 (human orexin-1 receptor; compound incubation 120 min): 2850 nM

COc1cccc(OC)c1[C@@H]1C[C@@H](F)C(=O)N1Cc1ccc2oc3ccccc3c2c1 (racemic) [Example 368, rac-(3R*,5S*)-1-(dibenzo[b,d]furan-2-ylmethyl)-5-(2,6-dimethoxyphenyl)-3-fluoropyrrolidin-2-one]
IC50 (human orexin-1 receptor; compound incubation 120 min): 23 nM

CC(C)Oc1cccc(F)c1[C@@H]1C[C@H](F)C(=O)N1Cc1ccc(OC(F)(F)F)cc1 (racemic) [Example 407, rac-(3S*,5S*)-3-fluoro-5-(2-fluoro-6-isopropoxyphenyl)-1-(4-(trifluoromethoxy)benzyl)pyrrolidin-2-one]
IC50 (human orexin-1 receptor; compound incubation 120 min): 678 nM

CC(C)Oc1cccc(F)c1[C@@H]1C[C@H](Cl)C(=O)N1Cc1ccc(OC(F)(F)F)cc1 (racemic) [Example 409, rac-(3S*,5S*)-3-chloro-5-(2-fluoro-6-isopropoxyphenyl)-1-(4-(trifluoromethoxy)benzyl)pyrrolidin-2-one]
IC50 (human orexin-1 receptor; compound incubation 120 min): 323 nM

CCOc1cccc(Cl)c1[C@@H]1C[C@@H](O)C(=O)N1Cc1ccc(OC(F)(F)F)cc1 (racemic) [Example 427, rac-(3R*,5S*)-5-(2-chloro-6-ethoxyphenyl)-3-hydroxy-1-(4-(trifluoromethoxy)benzyl)pyrrolidin-2-one]
IC50 (human orexin-1 receptor; compound incubation 120 min): 1230 nM

COc1cccc(F)c1[C@@H]1C[C@@H](O)C(=O)N1Cc1cccc(OC(F)(F)F)c1 (racemic) [Example 430, rac-(3R*,5S*)-5-(2-fluoro-6-methoxyphenyl)-3-hydroxy-1-(3-(trifluoromethoxy)benzyl)pyrrolidin-2-one]
IC50 (human orexin-1 receptor; compound incubation 120 min): 5360 nM

CCOc1cccc(F)c1[C@@H]1C[C@H](F)C(=O)N1Cc1ccc(OC(F)(F)F)c(Cl)c1 (racemic) [Example 461, rac-(3S*,5S*)-1-(3-chloro-4-(trifluoromethoxy)benzyl)-5-(2-ethoxy-6-fluorophenyl)-3-fluoropyrrolidin-2-one]
IC50 (human orexin-1 receptor; compound incubation 120 min): 724 nM

CCOc1cccc(F)c1[C@@H]1C[C@H](Cl)C(=O)N1Cc1ccc(OC(F)(F)F)c(Cl)c1 (racemic) [Example 462, rac-(3S*,5S*)-3-chloro-1-(3-chloro-4-(trifluoromethoxy)benzyl)-5-(2-ethoxy-6-fluorophenyl)pyrrolidin-2-one]
IC50 (human orexin-1 receptor; compound incubation 120 min): 405 nM

COc1cccc(OC)c1C1CCCC(=O)N1Cc1ccc2ccccc2n1 (centres unmarked) [Example 4, 6-(2,6-dimethoxyphenyl)-1-(quinolin-2-ylmethyl)piperidin-2-one]
IC50 (human orexin-1 receptor; compound incubation 120 min): 174 nM

COc1cccc(OC)c1C1CCCC(=O)N1Cc1ccc2ccccc2n1 (centres unmarked) [Example 4a, 6-(2,6-dimethoxyphenyl)-1-(quinolin-2-ylmethyl)piperidin-2-one]
IC50 (human orexin-1 receptor; compound incubation 120 min): 16 nM

COc1cccc(OC)c1C1CCCC(=O)N1Cc1ccc2ccccc2n1 (centres unmarked) [Example 4b, 6-(2,6-dimethoxyphenyl)-1-(quinolin-2-ylmethyl)piperidin-2-one]
IC50 (human orexin-1 receptor; compound incubation 120 min): 1420 nM

COc1cccc(OC)c1C1CCCC(=O)N1Cc1cnc(OC(F)F)c(C2CC2)c1 (centres unmarked) [Example 70, 1-((5-cyclopropyl-6-(difluoromethoxy)pyridin-3-yl)methyl)-6-(2,6-dimethoxyphenyl)piperidin-2-one]
IC50 (human orexin-1 receptor; compound incubation 120 min): 1780 nM

CCOc1cccc(OCC)c1C1CCCC(=O)N1Cc1ccc(OC(F)(F)F)cc1 (centres unmarked) [Example 231, 6-(2,6-diethoxyphenyl)-1-(4-(trifluoromethoxy)benzyl)piperidin-2-one]
IC50 (human orexin-1 receptor; [1]): 550 nM
